Test results reported in patent publication US20260256925A1, “INDAZOLE DERIVATIVES AS ESTROGEN RECEPTOR DEGRADERS” (REGENTS OF THE UNIVERSITY OF MICHIGAN, priority 2022, published 2026).

Legend:
ER = target: T1, ER (Homo sapiens, UniProt P03372); assay: In-cell western blot analysis, relative ER percentage (compounds B1-B126); type: cell-based; settings: ER degradation, 16 hours, read-out: ICW DC50
T1 construct: endogenous in cells; probably T47D or MCF-7
T1 sequence (P03372 1-595): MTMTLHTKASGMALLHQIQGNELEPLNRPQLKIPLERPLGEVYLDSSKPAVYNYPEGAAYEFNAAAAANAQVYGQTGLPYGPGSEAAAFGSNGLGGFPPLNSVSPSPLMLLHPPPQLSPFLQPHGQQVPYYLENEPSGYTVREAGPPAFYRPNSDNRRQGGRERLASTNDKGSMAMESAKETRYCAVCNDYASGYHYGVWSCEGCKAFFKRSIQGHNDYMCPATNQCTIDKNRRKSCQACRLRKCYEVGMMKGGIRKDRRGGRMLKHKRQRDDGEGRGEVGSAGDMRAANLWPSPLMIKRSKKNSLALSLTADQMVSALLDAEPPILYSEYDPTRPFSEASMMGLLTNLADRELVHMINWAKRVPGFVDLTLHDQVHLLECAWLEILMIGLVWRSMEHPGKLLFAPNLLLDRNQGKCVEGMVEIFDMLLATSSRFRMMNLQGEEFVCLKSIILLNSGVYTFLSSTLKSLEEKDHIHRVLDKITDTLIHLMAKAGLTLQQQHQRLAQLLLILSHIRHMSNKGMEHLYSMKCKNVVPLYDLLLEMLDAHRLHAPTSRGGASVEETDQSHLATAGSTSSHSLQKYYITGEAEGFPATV
Method in brief: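 Cells seeded at 40,000 or 10,000 per well overnight were treated with compound (final 0.5% DMSO) for 16 hours, then fixed with formaldehyde. ER was detected with primary antibodies and anti-rabbit-680/anti-mouse-800 secondaries on a CLX reader. Signal is expressed relative to untreated and DMSO wells set as 100%.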

[1] = Cell growth assay, WST-8 (compounds B1-B126); type: cell-based; settings: 96 h; T47D cell line, WST-8, 4 days; read-out: Cell growth inhibition in T47D cell line IC50
Method in brief: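 Cells seeded at 1500/well overnight, treated one day later with compound doses for 4 days, then 10% WST-8 added for 2.5 h at 37° C in CO2. Absorbance at 450 nm, expressed relative to vehicle control over three independent repeats.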

| Structure (SMILES) | DC50 (ER) [nM] | IC50 [1] [nM] |
| --- | --- | --- |
| C[C@@H]1Cc2c(ccc3[nH]ncc23)[C@@H](c2c(F)cc(N3CCC(CN4CCN5c6cc7c(cc6N(C)C[C@@H]5C4)C(=O)N(C4CCC(=O)NC4=O)C7)CC3)cc2F)N1CC(F)F (stereo partly drawn) [Compound B29, 3-((S)-3-((1-(4-((6S,8R)-7-(2,2-difluoroethyl)-8-methyl-6,7,8,9-tetrahydro-3H-pyrazolo[4,3-f]isoquinolin-6-yl)-3,5-difluorophenyl)piperidin-4-yl)methyl)-6-methyl-8-oxo-2,3,4,4a,5,6,8,10-octahydropyrazino[1,2-a]pyrrolo[3,4-g]quinoxalin-9(1H)-yl)piperidine-2,6-dione] | < 10 | < 1 |
| COc1cc(N2CCC3(CCN(C(=O)CN4Cc5cc6c(cc5C4)C(=O)N(C4CCC(=O)NC4=O)C6=O)CC3)CC2)ccc1[C@@H]1c2ccc3[nH]ncc3c2C[C@@H](C)N1CC(F)F (stereo partly drawn) [Compound B68, 6-(2-(9-(4-((6S,8R)-7-(2,2-difluoroethyl)-8-methyl-6,7,8,9-tetrahydro-3H-pyrazolo[4,3-f]isoquinolin-6-yl)-3-methoxyphenyl)-3,9-diazaspiro[5.5]undecan-3-yl)-2-oxoethyl)-2-(2,6-dioxopiperidin-3-yl)-6,7-dihydropyrrolo[3,4-f]isoindole-1,3(2H,5H)-dione] | < 10 | 1 to 10 |
| COc1cc(N2CCC3(CC2)CC(CN2CCN4c5cc6c(cc5OC[C@H]4C2)C(=O)N(C2CCC(=O)NC2=O)C6)C3)ccc1[C@@H]1c2ccc3[nH]ncc3c2C[C@@H](C)N1CC(F)F (stereo partly drawn) [Compound B55, 3-((R)-3-((7-(4-((6S,8R)-7-(2,2-difluoroethyl)-8-methyl-6,7,8,9-tetrahydro-3H-pyrazolo[4,3-f]isoquinolin-6-yl)-3-methoxyphenyl)-7-azaspiro[3.5]nonan-2-yl)methyl)-8-oxo-1,2,3,4,4a,5,8,10-octahydro-9H-pyrazino[1′,2′:4,5][1,4]oxazino[2,3-f]isoindol-9-yl)piperidine-2,6-dione] | > 100 | 1 to 10 |
| C[C@@H]1Cc2c(ccc3[nH]ncc23)[C@@H](c2ccc(N3CCC4(CC3)CC(CN3CCN5c6ccc7c(c6OC[C@@H]5C3)CN(C3CCC(=O)NC3=O)C7=O)C4)cn2)N1CC(F)(F)F (stereo partly drawn) [Compound B107, 3-((S)-7-((7-(6-((6S,8R)-8-methyl-7-(2,2,2-trifluoroethyl)-6,7,8,9-tetrahydro-3H-pyrazolo[4,3-f]isoquinolin-6-yl)pyridin-3-yl)-7-azaspiro[3.5]nonan-2-yl)methyl)-1-oxo-1,3,5,5a,6,7,8,9-octahydro-2H-pyrazino[1′,2′:4,5][1,4]oxazino[2,3-e]isoindol-2-yl)piperidine-2,6-dione] | 10 to 100 | < 1 |
| C[C@@H]1Cc2c(ccc3[nH]ncc23)[C@@H](c2ccc(N3CC4(CCC(CN5CCN6c7cc8c(cc7OC[C@@H]6C5)C(=O)N(C5CCC(=O)NC5=O)C8)CC4)C3)cn2)N1CC(F)F (stereo partly drawn) [Compound B88, 3-((S)-3-((2-(6-((6S,8R)-7-(2,2-difluoroethyl)-8-methyl-6,7,8,9-tetrahydro-3H-pyrazolo[4,3-f]isoquinolin-6-yl)pyridin-3-yl)-2-azaspiro[3.5]nonan-7-yl)methyl)-8-oxo-1,2,3,4,4a,5,8,10-octahydro-9H-pyrazino[1′,2′:4,5][1,4]oxazino[2,3-f]isoindol-9-yl)piperidine-2,6-dione] | < 10 | 1 to 10 |
| COc1c2c(cc3c1CN(C1CCC(=O)NC1=O)C3=O)CN(CC(=O)N1CCC3(CC1)CCN(c1cc(F)c([C@@H]4c5ccc6[nH]ncc6c5C[C@@H](C)N4CC(F)F)c(F)c1)CC3)C2 (stereo partly drawn) [Compound B72, 3-(6-(2-(9-(4-((6S,8R)-7-(2,2-difluoroethyl)-8-methyl-6,7,8,9-tetrahydro-3H-pyrazolo[4,3-f]isoquinolin-6-yl)-3,5-difluorophenyl)-3,9-diazaspiro[5.5]undecan-3-yl)-2-oxoethyl)-4-methoxy-1-oxo-3,5,6,7-tetrahydropyrrolo[3,4-f]isoindol-2(1H)-yl)piperidine-2,6-dione] | < 10 | 1 to 10 |
| C[C@@H]1Cc2c(ccc3[nH]ncc23)[C@@H](c2ccc(N3CC4(CCC(CN5CCC6(CCOc7c6ccc6c7CN(C7CCC(=O)NC7=O)C6=O)CC5)CC4)C3)cn2)N1CC(F)(F)F (stereo partly drawn) [Compound B58, 3-(1-((2-(6-((6S,8R)-8-methyl-7-(2,2,2-trifluoroethyl)-6,7,8,9-tetrahydro-3H-pyrazolo[4,3-f]isoquinolin-6-yl)pyridin-3-yl)-2-azaspiro[3.5]nonan-7-yl)methyl)-7′-oxo-2′,3′,7′,9′-tetrahydro-8′H-spiro[piperidine-4,4′-pyrano[2,3-e]isoindol]-8′-yl)piperidine-2,6-dione] | > 100 | < 1 |
| COc1cc(N2CC3(CCC(CN4CCN5c6ccc7c(c6OC[C@@H]5C4)CN(C4CCC(=O)NC4=O)C7=O)CC3)C2)ccc1[C@@H]1c2ccc3[nH]ncc3c2C[C@@H](C)N1CC(F)F (stereo partly drawn) [Compound B85, 3-((S)-7-((2-(4-((6S,8R)-7-(2,2-difluoroethyl)-8-methyl-6,7,8,9-tetrahydro-3H-pyrazolo[4,3-f]isoquinolin-6-yl)-3-methoxyphenyl)-2-azaspiro[3.5]nonan-7-yl)methyl)-1-oxo-1,3,5,5a,6,7,8,9-octahydro-2H-pyrazino[1′,2′:4,5][1,4]oxazino[2,3-e]isoindol-2-yl)piperidine-2,6-dione] | 10 to 100 | > 10 |
| C[C@@H]1Cc2c(ccc3[nH]ncc23)[C@@H](c2c(F)cc(N3CC4(CN(CC(=O)N5CCN6c7ccc8c(c7OC[C@H]6C5)CN(C5CCC(=O)NC5=O)C8=O)C4)C3)cc2F)N1CC(F)F (stereo partly drawn) [Compound B98, 3-((R)-7-(2-(6-(4-((6S,8R)-7-(2,2-difluoroethyl)-8-methyl-6,7,8,9-tetrahydro-3H-pyrazolo[4,3-f]isoquinolin-6-yl)-3,5-difluorophenyl)-2,6-diazaspiro[3.3]heptan-2-yl)acetyl)-1-oxo-1,3,5,5a,6,7,8,9-octahydro-2H-pyrazino[1′,2′:4,5][1,4]oxazino[2,3-e]isoindol-2-yl)piperidine-2,6-dione] | < 10 | < 1 |
| C[C@@H]1Cc2c(ccc3[nH]ncc23)[C@@H](c2ccc(N3CCC(CN4CCN(c5ccc6c(c5)CN(C5CCC(=O)NC5=O)C6=O)CC4)CC3)cn2)N1CC(F)(F)F (stereo partly drawn) [Compound B63, 3-(5-(4-((1-(6-((6S,8R)-8-methyl-7-(2,2,2-trifluoroethyl)-6,7,8,9-tetrahydro-3H-pyrazolo[4,3-f]isoquinolin-6-yl)pyridin-3-yl)piperidin-4-yl)methyl)piperazin-1-yl)-1-oxoisoindolin-2-yl)piperidine-2,6-dione] | < 10 | < 1 |
| COc1cc(N2CCC(N3CC(N4CCN5c6cc7c(cc6OC[C@@H]5C4)C(=O)N(C4CCC(=O)NC4=O)C7)C3)CC2)ccc1[C@@H]1c2ccc3[nH]ncc3c2C[C@@H](C)N1CC(F)F (stereo partly drawn) [Compound B53, 3-((S)-3-(1-(1-(4-((6S,8R)-7-(2,2-difluoroethyl)-8-methyl-6,7,8,9-tetrahydro-3H-pyrazolo[4,3-f]isoquinolin-6-yl)-3-methoxyphenyl)piperidin-4-yl)azetidin-3-yl)-8-oxo-1,2,3,4,4a,5,8,10-octahydro-9H-pyrazino[1′,2′:4,5][1,4]oxazino[2,3-f]isoindol-9-yl)piperidine-2,6-dione] | 10 to 100 | < 1 |
